Experimental data as given in US20040053309A1, “Proteins, genes and their use for diagnosis and treatment of kidney response” (priority 2000, published 2004).

Assays:
rats = experiment: Urine biochemistry parameters in Gentamicin-treated rats; type: in vivo, rat; conditions: 60 mg/kg/day
Protocol: (§1) Gentamicin, a known kidney toxin, was used to treat rats at a range of doses known to produce varying degrees of bistopathologically evident kidney response. […] The rat groups included 10 male rats per treated group, and 20 male rats in the untreated (control) group. Blood samples from rats treated at 40 mg/kg/day after 8 days were taken for proteome analysis, and kidney cortex tissue samples from rats treated at 0.1, 1.0, 10, and 40 mg/kg/day after 8 and 22 days for each group were taken for proteome analysis. Kidney cortex tissue samples were also prepared for histologic examination according to standard tissue preparation protocols.
(§2) At 60 mg/kg/day there were changes in urine biochemistry parameters (raised NAG (N-acetyl-beta-D-glucosaminidase), GGT (gamma-glutamyl-transpeptidase) and urine volume, depressed specific gravity), consistent with kidney damage.

[1] = system: proximal convoluted tubule epithelium of the kidney; experiment: Histologic examination of kidney cortex tissue of Gentamicin-treated rats; type: in vivo, rat
Protocol: as §1, §2

Gentamicin
urine GGT (gamma-glutamyl-transpeptidase) (rats): raised
urine NAG (N-acetyl-beta-D-glucosaminidase) (rats): raised
urine specific gravity (rats): depressed
histologic examination of kidney ([1]; 60 mg/kg): single cell necrosis and loss of brush border of the proximal convoluted tubule epithelium of the kidney
histologic finding after withdrawal of treatment ([1]; seven days after the withdrawal of treatment): evidence of cortical tubular regeneration
